# *1 amine or outer side, *2 acyl side, *3 side chain or, on linkers, in order; H or OH if unused. Where a SMILES comes first, the peptide text is derived from it. Side-chain parts run from the residue outwards. [ ]: non-standard residue; d: D form. The star is where a group is joined. Isobutyryl(2-(3-CN-5-F-Ph)) = CC(C)(C(=O)*)c1cc(F)cc(C#N)c1; C20 diacid = O=C(O)CCCCCCCCCCCCCCCCCCC(=O)*; X31 = CC(C)(C(=S)NCCC(=O)*)c1cc(F)cc(C#N)c1; γGlu = O=C(O)[C@H](CCC(=O)[*:2])N[*:1]; β2hAla(R) = C[C@H](CN[*:1])C(=O)[*:2]; X20 = O=C(C1(c2ccc(Cl)cc2)CCOCC1)*; X58 = Cc1cc(F)cc(C(C)(C)C(=O)*)c1; AEEA = NCCOCCOCC(=O)O; Aib = CC(C)(N)C(=O)O; βAla = NCCC(=O)O
# Legend:
# Format in all cases: cell-based
# GIP receptor [1] = target: T1, GIP receptor (Homo sapiens, UniProt P48546); assay: HitHunter cAMP assay, GIP receptor; settings: for EC50: CHO cells stably expressing GIP receptor, cAMP accumulation, 30 min, read-out: EC50 GIP-1R; for Emax: CHO cells, cAMP, normalized to maximum signal from GIP (high) and DMSO (low), read-out: Emax GIP-1R
# T1 sequence (P48546 22-466): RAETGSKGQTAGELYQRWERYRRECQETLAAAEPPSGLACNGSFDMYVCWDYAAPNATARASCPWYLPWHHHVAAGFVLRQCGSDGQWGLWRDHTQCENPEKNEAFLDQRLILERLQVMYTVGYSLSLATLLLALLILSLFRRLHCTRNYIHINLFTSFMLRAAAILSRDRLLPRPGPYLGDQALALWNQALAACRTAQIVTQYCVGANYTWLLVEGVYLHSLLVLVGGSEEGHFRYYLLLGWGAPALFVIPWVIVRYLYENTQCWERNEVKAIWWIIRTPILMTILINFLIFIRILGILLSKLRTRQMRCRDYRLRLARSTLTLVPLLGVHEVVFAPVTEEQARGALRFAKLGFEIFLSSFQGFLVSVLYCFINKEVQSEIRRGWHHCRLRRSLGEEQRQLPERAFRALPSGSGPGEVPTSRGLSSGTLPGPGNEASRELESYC
# GLP-1 receptor [2] = target: T2, GLP-1 receptor (Homo sapiens, UniProt P43220); assay: PathHunter β-arrestin assay, GLP-1 receptor; set-up: host or cells: PathHunter CHO-K1 GLP1R β-Arrestin Cell Line; settings: β-arrestin-2 recruitment, PathHunter CHO-K1 GLP1R β-Arrestin Cell Line, 90 min at 37° C.; normalized to GLP-1; read-out: GLP-1R β Arrestin EC50
# T2 sequence (P43220 24-463): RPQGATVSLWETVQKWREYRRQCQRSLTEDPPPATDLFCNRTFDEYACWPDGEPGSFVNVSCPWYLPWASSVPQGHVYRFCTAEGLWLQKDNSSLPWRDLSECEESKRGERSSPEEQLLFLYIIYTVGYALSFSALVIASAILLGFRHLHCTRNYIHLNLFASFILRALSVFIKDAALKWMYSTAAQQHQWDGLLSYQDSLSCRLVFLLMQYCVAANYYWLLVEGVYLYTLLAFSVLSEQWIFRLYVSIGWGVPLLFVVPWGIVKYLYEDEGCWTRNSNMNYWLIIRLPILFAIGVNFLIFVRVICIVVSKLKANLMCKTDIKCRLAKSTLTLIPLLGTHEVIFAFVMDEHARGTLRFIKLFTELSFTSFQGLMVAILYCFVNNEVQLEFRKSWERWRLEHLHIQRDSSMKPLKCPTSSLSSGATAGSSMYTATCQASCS
# GLP-1 receptor [3] = target: T2, GLP-1 receptor; assay: HitHunter cAMP assay, GLP-1 receptor; settings: for EC50: CHO cells stably expressing human GLP-1 receptor, cAMP accumulation, 30 min, read-out: EC50 GLP-1R; for Emax: CHO cells, cAMP, normalized to maximum signal from GLP-1 (high) and DMSO (low), read-out: Emax GLP-1R
# GIP receptor [4] = target: T1, GIP receptor; assay: PathHunter β-arrestin assay, GIP receptor; set-up: host or cells: PathHunter CHO-K1 GIPR β-Arrestin Cell Line; settings: β-arrestin-2 recruitment, PathHunter CHO-K1 GIPR β-Arrestin Cell Line, 90 min at 37° C.; normalized to GIP; read-out: GIPR β Arrestin EC50
structure (smiles),measurement,setting,value
CC[C@H](C)[C@H](NC(=O)[C@H](CC(C)C)NC(=O)[C@H](Cc1c[nH]c2ccccc12)NC(=O)[C@H](CCC(N)=O)NC(=O)[C@@H](NC(=O)[C@H](Cc1ccccc1)NC(=O)[C@H](C)NC(=O)[C@H](CCCCNC(=O)COCCOCCNC(=O)COCCOCCNC(=O)CC[C@H](NC(=O)CCCCCCCCCCCCCCCCCCC(=O)O)C(=O)O)NC(=O)[C@H](CCC(N)=O)NC(=O)[C@H](C)NC(=O)[C@@H](NC(=O)[C@H](CCCCN)NC(=O)[C@H](CC(=O)O)NC(=O)[C@H](CC(C)C)NC(=O)C(C)(C)NC(=O)[C@@H](NC(=O)[C@H](CO)NC(=O)[C@H](Cc1ccc(O)cc1)NC(=O)[C@H](CC(=O)O)NC(=O)[C@H](CO)NC(=O)[C@@H](NC(=O)[C@H](Cc1ccccc1)NC(=O)[C@@H](NC(=O)CNC(=O)[C@H](CCC(=O)O)NC(=O)[C@H](C)CNC(=O)C(C)(C)c1cc(F)cc(C#N)c1)[C@@H](C)O)[C@@H](C)O)[C@@H](C)CC)[C@@H](C)CC)C(C)C)C(=O)N[C@@H](C)C(=O)NCC(=O)NCC(=O)N1CCC[C@H]1C(=O)N[C@@H](CO)C(=O)N[C@@H](CO)C(=O)NCC(=O)N[C@@H](C)C(=O)N1CCC[C@H]1C(=O)N1CCC[C@H]1C(=O)N1CCC[C@H]1C(=O)N[C@@H](CO)C(N)=O [Compound 225] ({Isobutyryl(2-(3-CN-5-F-Ph))}-[β2hAla(R)]EGTFTSDYSI[Aib]LDKIAQK([AEEA-AEEA-γGlu-C20 diacid])AFVQWLIAGGPSSGAPPPS-NH2),EC50,GIP receptor [1],10 to 100 nM
same,Emax,GIP receptor [1],98%
same,EC50,GLP-1 receptor [2],> 1000 nM
same,EC50,GLP-1 receptor [3],0.1 to 1 nM
same,Emax,GLP-1 receptor [3],102%
same,EC50,GIP receptor [4],> 1000 nM
CC[C@H](C)[C@H](NC(=O)[C@H](CC(C)C)NC(=O)[C@H](Cc1c[nH]c2ccccc12)NC(=O)[C@H](CCC(N)=O)NC(=O)[C@@H](NC(=O)[C@H](Cc1ccccc1)NC(=O)[C@H](C)NC(=O)[C@H](CCCCNC(=O)COCCOCCNC(=O)COCCOCCNC(=O)CC[C@H](NC(=O)CCCCCCCCCCCCCCCCCCC(=O)O)C(=O)O)NC(=O)[C@H](CCC(N)=O)NC(=O)[C@H](C)NC(=O)[C@@H](NC(=O)[C@H](CCCCN)NC(=O)[C@H](CC(=O)O)NC(=O)[C@H](CC(C)C)NC(=O)C(C)(C)NC(=O)[C@@H](NC(=O)[C@H](CO)NC(=O)[C@H](Cc1ccc(O)cc1)NC(=O)[C@H](CC(=O)O)NC(=O)[C@H](CO)NC(=O)[C@@H](NC(=O)[C@H](Cc1ccccc1)NC(=O)[C@@H](NC(=O)CNC(=O)[C@H](CCC(=O)O)NC(=O)CCNC(=O)C1(c2ccc(Cl)cc2)CCOCC1)[C@@H](C)O)[C@@H](C)O)[C@@H](C)CC)[C@@H](C)CC)C(C)C)C(=O)N[C@@H](C)C(=O)NCC(=O)NCC(=O)N1CCC[C@H]1C(=O)N[C@@H](CO)C(=O)N[C@@H](CO)C(=O)NCC(=O)N[C@@H](C)C(=O)N1CCC[C@H]1C(=O)N1CCC[C@H]1C(=O)N1CCC[C@H]1C(=O)N[C@@H](CO)C(N)=O [Compound 172] ({X20-βAla}-EGTFTSDYSI[Aib]LDKIAQK([AEEA-AEEA-γGlu-C20 diacid])AFVQWLIAGGPSSGAPPPS-NH2),EC50,GIP receptor [1],1 to 10 nM
same,Emax,GIP receptor [1],109%
same,EC50,GLP-1 receptor [2],> 1000 nM
same,EC50,GLP-1 receptor [3],1 to 10 nM
same,Emax,GLP-1 receptor [3],89%
same,EC50,GIP receptor [4],> 1000 nM
CC[C@H](C)[C@H](NC(=O)[C@H](CC(C)C)NC(=O)[C@H](Cc1c[nH]c2ccccc12)NC(=O)[C@H](CCC(N)=O)NC(=O)[C@@H](NC(=O)[C@H](Cc1ccccc1)NC(=O)[C@H](C)NC(=O)[C@H](CCCCNC(=O)COCCOCCNC(=O)COCCOCCNC(=O)CC[C@H](NC(=O)CCCCCCCCCCCCCCCCCCC(=O)O)C(=O)O)NC(=O)[C@H](CCC(N)=O)NC(=O)[C@H](C)NC(=O)[C@@H](NC(=O)[C@H](CCCCN)NC(=O)[C@H](CC(=O)O)NC(=O)[C@H](CC(C)C)NC(=O)C(C)(C)NC(=O)[C@@H](NC(=O)[C@H](CO)NC(=O)[C@H](Cc1ccc(O)cc1)NC(=O)[C@H](CC(=O)O)NC(=O)[C@H](CO)NC(=O)[C@@H](NC(=O)[C@H](Cc1ccccc1)NC(=O)[C@@H](NC(=O)CNC(=O)[C@H](CCC(=O)O)NC(=O)CCNC(=O)C(C)(C)c1cc(C)cc(F)c1)[C@@H](C)O)[C@@H](C)O)[C@@H](C)CC)[C@@H](C)CC)C(C)C)C(=O)N[C@@H](C)C(=O)NCC(=O)NCC(=O)N1CCC[C@H]1C(=O)N[C@@H](CO)C(=O)N[C@@H](CO)C(=O)NCC(=O)N[C@@H](C)C(=O)N1CCC[C@H]1C(=O)N1CCC[C@H]1C(=O)N1CCC[C@H]1C(=O)N[C@@H](CO)C(N)=O [Compound 144] ({X58-βAla}-EGTFTSDYSI[Aib]LDKIAQK([AEEA-AEEA-γGlu-C20 diacid])AFVQWLIAGGPSSGAPPPS-NH2),EC50,GIP receptor [1],1 to 10 nM
same,Emax,GIP receptor [1],103%
same,EC50,GLP-1 receptor [2],> 1000 nM
same,EC50,GLP-1 receptor [3],< 0.1 nM
same,Emax,GLP-1 receptor [3],99%
same,EC50,GIP receptor [4],> 1000 nM
CC[C@H](C)[C@H](NC(=O)[C@H](CC(C)C)NC(=O)[C@H](Cc1c[nH]c2ccccc12)NC(=O)[C@H](CCC(N)=O)NC(=O)[C@@H](NC(=O)[C@H](Cc1ccccc1)NC(=O)[C@H](C)NC(=O)[C@H](CCCCNC(=O)COCCOCCNC(=O)COCCOCCNC(=O)CC[C@H](NC(=O)CCCCCCCCCCCCCCCCCCC(=O)O)C(=O)O)NC(=O)[C@H](CCC(N)=O)NC(=O)[C@H](C)NC(=O)[C@@H](NC(=O)[C@H](CCCCN)NC(=O)[C@H](CC(=O)O)NC(=O)[C@H](CC(C)C)NC(=O)C(C)(C)NC(=O)[C@@H](NC(=O)[C@H](CO)NC(=O)[C@H](Cc1ccc(O)cc1)NC(=O)[C@H](CC(=O)O)NC(=O)[C@H](CO)NC(=O)[C@@H](NC(=O)[C@H](Cc1ccccc1)NC(=O)[C@@H](NC(=O)CNC(=O)[C@H](CCC(=O)O)NC(=O)CCNC(=S)C(C)(C)c1cc(F)cc(C#N)c1)[C@@H](C)O)[C@@H](C)O)[C@@H](C)CC)[C@@H](C)CC)C(C)C)C(=O)N[C@@H](C)C(=O)NCC(=O)NCC(=O)N1CCC[C@H]1C(=O)N[C@@H](CO)C(=O)N[C@@H](CO)C(=O)NCC(=O)N[C@@H](C)C(=O)N1CCC[C@H]1C(=O)N1CCC[C@H]1C(=O)N1CCC[C@H]1C(=O)N[C@@H](CO)C(N)=O [Compound 135] (X31-EGTFTSDYSI[Aib]LDKIAQK([AEEA-AEEA-γGlu-C20 diacid])AFVQWLIAGGPSSGAPPPS-NH2),EC50,GIP receptor [1],10 to 100 nM
same,Emax,GIP receptor [1],87%
same,EC50,GLP-1 receptor [2],> 1000 nM
same,EC50,GLP-1 receptor [3],0.1 to 1 nM
same,Emax,GLP-1 receptor [3],99%
same,EC50,GIP receptor [4],> 1000 nM
CC[C@H](C)[C@H](NC(=O)[C@H](CO)NC(=O)[C@H](Cc1ccc(O)cc1)NC(=O)[C@H](CC(=O)O)NC(=O)[C@H](CO)NC(=O)[C@@H](NC(=O)[C@H](Cc1ccccc1)NC(=O)[C@@H](NC(=O)CNC(=O)[C@H](CCC(=O)O)NC(=O)CCNC(=O)C1(c2ccc(F)cc2F)CCCC1)[C@@H](C)O)[C@@H](C)O)C(=O)N[C@@H](Cc1ccc(O)cc1)C(=O)N[C@@H](CC(C)C)C(=O)N[C@@H](CC(=O)O)C(=O)N[C@@H](CCCCN)C(=O)N[C@@H](CCC(N)=O)C(=O)N[C@@H](C)C(=O)N[C@@H](C)C(=O)NC(C)(C)C(=O)N[C@@H](CCC(=O)O)C(=O)N[C@@H](Cc1ccccc1)C(=O)N[C@H](C(=O)N[C@@H](CC(N)=O)C(=O)N[C@@H](Cc1c[nH]c2ccccc12)C(=O)N[C@@H](CC(C)C)C(=O)N[C@@H](CC(C)C)C(=O)N[C@@H](C)C(=O)NCC(=O)NCC(=O)N1CCC[C@H]1C(=O)N[C@@H](CO)C(=O)N[C@@H](CO)C(=O)NCC(=O)N[C@@H](C)C(=O)N1CCC[C@H]1C(=O)N1CCC[C@H]1C(=O)N1CCC[C@H]1C(=O)N[C@@H](CO)C(=O)N[C@@H](CCCCNC(=O)COCCOCCNC(=O)COCCOCCNC(=O)CC[C@H](NC(=O)CCCCCCCCCCCCCCCCCCC(=O)O)C(=O)O)C(N)=O)C(C)C [Compound 145],EC50,GIP receptor [1],1 to 10 nM
same,Emax,GIP receptor [1],102%
same,EC50,GLP-1 receptor [2],> 1000 nM
same,EC50,GLP-1 receptor [3],1 to 10 nM
same,Emax,GLP-1 receptor [3],97%
same,EC50,GIP receptor [4],> 1000 nM
